PubChem BioAssay AID206 (DTP/NCI, 2004)
Values joined by “and” are separate entries in the source; they are usually repeats but may differ in a detail not shown here. Equal entries are not always repeated. Records with an inconclusive call do not appear.

Test system: nude mice, HT29 intrarenal xenograft, tumor weight T/C
Assay: NCI In Vivo Anticancer Drug Screen. Data for tumor model HT29;CX-1 Human Adenocarcinoma (MER+) (intrarenal inoculation) in NU/NU Swiss (nude) mice
Conditions: endpoint: mean tumor weight change, higher = larger tumour
Procedure: The antitumor activity of compounds was measured in mice bearing transplantable tumors. Survival or tumor size were measured and the results are expressed as the measurement made in the treated group (T) divided by the measurement made in the vehicle treated control group (C). The tumor model used in this assay is HT29;CX-1 Human Adenocarcinoma (MER+) (intrarenal inoculation) in NU/NU Swiss (nude) mice

[1] = dose: 50.0 mg/kg/injection, schedule: Q04DX004 (sc), vehicle: saline with Tween-80
[2] = dose: 200.0 mg/kg/injection, schedule: Q04DX004 (sc), vehicle: saline with Tween-80
[3] = dose: 400.0 mg/kg/injection, schedule: Q01DX010 (sc), vehicle: saline with Tween-80

With `CC1(c2ccc(Cl)cc2)OC(=O)C(=Cc2ccc([N+](=O)[O-])s2)C(=O)O1` (stereo not drawn) the T/C [1] was 34 % of control, the T/C (dose: 100.0 mg/kg/injection, schedule: Q04DX004 (sc), vehicle: saline with Tween-80) was 53 % of control and the T/C [2] was 77 % of control. For the same compound, the T/C (dose: 400.0 mg/kg/injection, schedule: Q04DX004 (sc), vehicle: saline with Tween-80) was 60 % of control.
For `Clc1ccc(CN2COc3c(ccc4cccnc34)C2)cc1Cl`, the T/C (dose: 100.0 mg/kg/injection, schedule: Q01DX010 (sc), vehicle: saline with Tween-80) was 73 % of control and the T/C [3] was 60 % of control and 72 % of control.
For `C/C=C/c1cc2c(c(=O)o1)C(=O)[C@@H](O)[C@H](C)O2`, the T/C [1] was 107 % of control and the T/C [2] was 79 % of control.
In the case of `CCCCCC(O)C1C(=O)OC(C)C(O)/C=C/C=C/C=C/C=C\C=C(\C)C(O)CC(O)CC(O)CC(O)CC(O)CC(O)CC1O` (stereo not drawn), the T/C (dose: 37.5 mg/kg/injection, schedule: Q04DX004 (sc), vehicle: distilled water + alcohol) is reported as 73 % of control, the T/C (dose: 75.0 mg/kg/injection, schedule: Q04DX004 (sc), vehicle: distilled water + alcohol) is reported as 110 % of control and the T/C (dose: 150.0 mg/kg/injection, schedule: Q04DX004 (sc), vehicle: distilled water + alcohol) is reported as 107 % of control.
In the case of `CC(=O)[O][Pb]([O]C(C)=O)([c]1ccccc1)[c]1ccccc1`, the T/C (dose: 250.0 mg/kg/injection, schedule: Q04DX004 (sc), vehicle: Klucel (hydroxypropylcellulose) (HPC)) is reported as 120 % of control, the T/C (dose: 500.0 mg/kg/injection, schedule: Q04DX004 (sc), vehicle: Klucel (hydroxypropylcellulose) (HPC)) is reported as 64 % of control and the T/C (dose: 1000.0 mg/kg/injection, schedule: Q04DX004 (sc), vehicle: Klucel (hydroxypropylcellulose) (HPC)) is reported as 44 % of control. The T/C (dose: 2000.0 mg/kg/injection, schedule: Q04DX004 (sc), vehicle: Klucel (hydroxypropylcellulose) (HPC)) was 118 % of control.
With `Nc1ccccc1N` the T/C (dose: 100.0 mg/kg/injection, schedule: Q01DX010 (sc), vehicle: Klucel (hydroxypropylcellulose) (HPC)) was 206 % of control and the T/C (dose: 200.0 mg/kg/injection, schedule: Q01DX010 (sc), vehicle: Klucel (hydroxypropylcellulose) (HPC)) was 115 % of control.
`O=C(N/N=C\c1cc(Br)cc(Br)c1O)N/N=C/c1cc(Br)cc(Br)c1O` was tested, and the T/C (dose: 200.0 mg/kg/injection, schedule: Q01DX010 (sc), vehicle: saline with Tween-80) was 71 % of control and 94 % of control, the T/C [3] was 43 % of control and 56 % of control and the T/C (dose: 800.0 mg/kg/injection, schedule: Q01DX010 (sc), vehicle: saline with Tween-80) was 76 % of control.
`O=CC(O)C(O)C(O)C(O)C(=O)O.[NH-]C1CCCCC1[NH-].[Pt+2]` (stereo not drawn) was tested, and the T/C (dose: 9.38 mg/kg/injection, schedule: Q04DX004 (sc), vehicle: suspension in saline) was 44 % of control and the T/C (dose: 18.75 mg/kg/injection, schedule: Q04DX004 (sc), vehicle: suspension in saline) was 62 % of control.
`CC1(C)CC23C4COC(=O)C2CCC1C3CC4=O` (stereo not drawn) was tested, and the T/C (dose: 25.0 mg/kg/injection, schedule: Q04DX004 (sc), vehicle: DMSO) was 56 % of control, the T/C (dose: 50.0 mg/kg/injection, schedule: Q04DX004 (sc), vehicle: DMSO) was 106 % of control and the T/C (dose: 100.0 mg/kg/injection, schedule: Q04DX004 (sc), vehicle: DMSO) was 103 % of control. For the same compound, the T/C (dose: 300.0 mg/kg/injection, schedule: Q04DX004 (sc), vehicle: DMSO) was 56 % of control, the T/C (dose: 600.0 mg/kg/injection, schedule: Q04DX004 (sc), vehicle: DMSO) was 64 % of control and the T/C (dose: 1200.0 mg/kg/injection, schedule: Q04DX004 (sc), vehicle: DMSO) was 88 % of control. The T/C (dose: 2400.0 mg/kg/injection, schedule: Q04DX004 (sc), vehicle: DMSO) was 114 % of control.
With `CC(=O)OCC1OC([S-])C(OC(C)=O)C(OC(C)=O)C1OC(C)=O.CC[PH+](CC)CC.CC[PH+](CC)CC.[Au].[Au]` (stereo not drawn) the T/C (dose: 5.0 mg/kg/injection, schedule: Q04DX004 (sc), vehicle: Klucel (hydroxypropylcellulose) (HPC)) was 177 % of control and the T/C (dose: 10.0 mg/kg/injection, schedule: Q04DX004 (sc), vehicle: Klucel (hydroxypropylcellulose) (HPC)) was 113 % of control.
`Cc1c2c(ccc3ccccc32)c[n+]2ccccc12` was tested, and the T/C (dose: 6.25 mg/kg/injection, schedule: Q01DX010 (sc), vehicle: saline) was 84 % of control and the T/C (dose: 12.5 mg/kg/injection, schedule: Q01DX010 (sc), vehicle: saline) was 82 % of control.
